In paper PMC12292835, “Amylin Receptor 1 Mutagenesis Revealed a Potential Role of Calcitonin Serine 29 in Receptor Interaction” (Biomedicines, 2025):
Where a SMILES comes first, the peptide text is derived from it. The star is where a group is joined. FITC = O=C1OC2(c3ccc(O)cc3Oc3cc(O)ccc32)c2ccc(NC(=S)*)cc21

Experiments:
[1] = target: T1, amylin receptor 1 ECD with calcitonin receptor D101A mutation (Homo sapiens, UniProt O60894+P30988, D101A); assay: FP saturation binding, D101A; settings: for Average fluorescence intensity change upon receptor ECD binding: % of a free probe intensity, Mean ± S.D., max receptor 1 μM; for effect of mutation on binding affinity: in words
T1 construct: pHLsec/hRAMP1.24–111-(GSA)3-hCTR.34–141.D101A-H6 (D-pJJ003); H6 (hexahistidine) (C); made in house; host or cells: HEK293 (transient transfection, secreted, N-glycosylated)
From the text: (§1) pHLsec-based vectors were used to express wild-type and mutated amylin receptor 1 extracellular domains as secreted proteins to cell culture media. The plasmid DNA construct of the wild-type amylin receptor 1 extracellular domain, pHLsec/hRAMP1.24–111-(GSA)3-hCTR.34–141-H6 (H-pSL005) was previously described. The following DNA vector plasmids were made for this study: pHLsec/hRAMP1.24–111-(GSA)3-hCTR.34–141.D97A-H6 (D-pSL009), pHLsec/hRAMP1.24–111-(GSA)3-hCTR.34–141.D97E-H6 (D-pJS001), pHLsec/hRAMP1.24–111-(GSA)3-hCTR.34–141.D101A-H6 (D-pJJ003), pHLsec/hRAMP1.24–111-(GSA)3-hCTR.34–141.D101E-H6 (D-pJJ002), pHLsec/hRAMP1.24–111-(GSA)3-hCTR.34–141.E123A-H6 (D-pJJ004), pHLsec/hRAMP1.24–111-(GSA)3-hCTR.34–141.E123D-H6 (D-pJJ001), pHLsec/hRAMP1.24–111-(GSA)3-hCTR.34–141.N124A-H6 (D-pJS005), pHLsec/hRAMP1.24–111-(GSA)3-hCTR.34–141.N124D-H6 (D-pJS006), pHLsec/hRAMP1.24–111-(GSA)3-hCTR.34–141.N135A-H6 (D-pJW001), and pHLsec/hRAMP1.24–111-(GSA)3-hCTR.34–141.N135D-H6 (D-pJS002). The mutations were introduced to the calcitonin receptor extracellular domain by using DNA Assembly reaction. Coding sequences of the receptor expression vectors were confirmed with Sanger sequencing by Bionics (Seoul, Republic of Korea). DNA plasmid vectors were extracted and were purified from bacterial cells with NucleoBond® Extra Midi Plus kit (Macherey-Nagel, Germany). The purified DNA vectors were stored at −20 °C until their use for mammalian cell transfection.
(§2) The overall experimental procedure of reconstituting the functional amylin receptor 1 extracellular domain (ECD) as the fusion protein of RAMP1 ECD and the calcitonin receptor ECD was previously described. The wild-type and mutated amylin receptor 1 ECDs were expressed from HEK293 cells with transient transfection with polyethylenimine. The expressed receptor proteins were secreted to cell culture media for 4 days at 37 °C. The media were collected for the receptor protein purification. Initial dialysis was performed with the dialysis buffer (Tris 25 mM (pH 7.4), NaCl 150 mM, and imidazole 10 mM) overnight. […] Then, a size exclusion column chromatography (SEC) was performed with SEC column (Cytiva, HiLoad® 16/600 Superdex® 200 pg) and SEC buffer (Tris 50 mM (pH 7.4), NaCl 150 mM, and glycerol (v/v) 10%) as previously described. As the final step, the purified receptor proteins were dialyzed to storage buffer (HEPES 25 mM (pH 7.4), NaCl 150 mM, and glycerol (v/v) 50 %) and were stored at −60 °C until their use for the receptor–ligand binding assay. […]
(§3) The overall procedure of the FP binding assay with a saturation binding format was previously described. […] FITC-labeled peptide probes were incubated for 1 h at room temperature with the purified receptor protein prior to fluorescence signal measurement. […]

[2] = target: T2, amylin receptor 1 ECD with calcitonin receptor D101E mutation (Homo sapiens, UniProt O60894+P30988, D101E); assay: FP saturation binding, D101E; settings: for Average fluorescence intensity change upon receptor ECD binding: % of a free probe intensity, Mean ± S.D., max receptor 3 μM (sCT), 1 μM (AC413)
T2 construct: pHLsec/hRAMP1.24–111-(GSA)3-hCTR.34–141.D101E-H6 (D-pJJ002); H6 (hexahistidine) (C); made in house; host or cells: HEK293 (transient transfection, secreted, N-glycosylated)
From the text: as §1
The overall experimental procedure of reconstituting the functional amylin receptor 1 extracellular domain (ECD) as the fusion protein of RAMP1 ECD and the calcitonin receptor ECD was previously described. The wild-type and mutated amylin receptor 1 ECDs were expressed from HEK293 cells with transient transfection with polyethylenimine. […]
as §3

[3] = target: T3, amylin receptor 1 ECD with calcitonin receptor E123A mutation (Homo sapiens, UniProt O60894+P30988, E123A); assay: FP saturation binding, E123A; settings: for Average fluorescence intensity change upon receptor ECD binding: % of a free probe intensity, Mean ± S.D., E123A, max receptor 3 μM (sCT), 1 μM (AC413); for decrease of binding affinity: E123A versus wild-type receptor ECD
T3 construct: pHLsec/hRAMP1.24–111-(GSA)3-hCTR.34–141.E123A-H6 (D-pJJ004); H6 (hexahistidine) (C); made in house; host or cells: HEK293 (transient transfection, secreted, N-glycosylated)
From the text: as §1, §2, §3

[4] = target: T4, amylin receptor 1 ECD with calcitonin receptor E123D mutation (Homo sapiens, UniProt O60894+P30988, E123D); assay: FP saturation binding, E123D; settings: for Average fluorescence intensity change upon receptor ECD binding: % of a free probe intensity, Mean ± S.D., max receptor 3 μM (sCT), 1 μM (AC413); for effect of mutation on binding affinity: compared with E123A, in words
T4 construct: pHLsec/hRAMP1.24–111-(GSA)3-hCTR.34–141.E123D-H6 (D-pJJ001); H6 (hexahistidine) (C); made in house; host or cells: HEK293 (transient transfection, secreted, N-glycosylated)
From the text: as §1, §2, §3

[5] = target: T5, amylin receptor 1 ECD with calcitonin receptor D97A mutation (Homo sapiens, UniProt O60894+P30988, D97A); assay: FP saturation binding, D97A; settings: for Average fluorescence intensity change upon receptor ECD binding: % of a free probe intensity, Mean ± S.D., max receptor 3 μM (sCT), 1 μM (AC413)
T5 construct: pHLsec/hRAMP1.24–111-(GSA)3-hCTR.34–141.D97A-H6 (D-pSL009); H6 (hexahistidine) (C); made in house; host or cells: HEK293 (transient transfection, secreted, N-glycosylated)
From the text: as §1, §2, §3

T1 sequence (O60894 24-111): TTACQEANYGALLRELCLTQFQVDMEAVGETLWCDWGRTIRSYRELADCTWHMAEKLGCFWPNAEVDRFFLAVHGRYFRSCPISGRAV
T1 sequence (P30988 34-141 D101A): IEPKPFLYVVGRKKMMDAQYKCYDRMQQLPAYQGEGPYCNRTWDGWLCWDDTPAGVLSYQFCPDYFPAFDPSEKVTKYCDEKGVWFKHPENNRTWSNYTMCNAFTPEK
T3 sequence (O60894 24-111): as the sequence (O60894 24-111) above
T3 sequence (P30988 34-141 E123A): as the sequence (P30988 34-141 D101A) above, with A68D, E90A counted along it
T2 sequence (O60894 24-111): as the sequence (O60894 24-111) above
T2 sequence (P30988 34-141 D101E): as the sequence (P30988 34-141 D101A) above, with A68E counted along it
T5 sequence (O60894 24-111): as the sequence (O60894 24-111) above
T5 sequence (P30988 34-141 D97A): as the sequence (P30988 34-141 D101A) above, with D64A, A68D counted along it
T4 sequence (O60894 24-111): as the sequence (O60894 24-111) above
T4 sequence (P30988 34-141 E123D): as the sequence (P30988 34-141 D101A) above, with A68D, E90D counted along it

Average fluorescence intensity change upon receptor ECD binding [1] [%]	effect of mutation on binding affinity [1]	Average fluorescence intensity change upon receptor ECD binding [2] [%]	Average fluorescence intensity change upon receptor ECD binding [3] [%]	decrease of binding affinity [3] [fold]	Average fluorescence intensity change upon receptor ECD binding [4] [%]	Average fluorescence intensity change upon receptor ECD binding ([5]; D97A) [%]	effect of mutation on binding affinity ([5]; D97A, in words)	effect of mutation on binding affinity ([2]; in words)	decrease of binding affinity ([5]; D97A versus wild-type receptor ECD) [fold]	SMILES	effect of mutation on binding affinity [4]
97 ± 3	markedly decreased the binding affinity	99 ± 3	77 ± 13	2.3	72 ± 4	71 ± 4	not significantly changed	–	–	CC(C)C[C@H](NC(=O)[C@H](CCCNC(=N)N)NC(=O)[C@@H](NC(=O)[C@H](CC(C)C)NC(=O)[C@H](Cc1ccccc1)NC(=O)[C@H](CC(N)=O)NC(=O)[C@H](C)NC(=S)Nc1ccc2c(c1)C(=O)OC21c2ccc(O)cc2Oc2cc(O)ccc21)C(C)C)C(=O)N[C@@H](CCC(N)=O)C(=O)N[C@H](C(=O)N[C@@H](Cc1ccc(O)cc1)C(=O)N1CCC[C@H]1C(=O)N[C@@H](CCCNC(=N)N)C(=O)N[C@H](C(=O)N[C@@H](CC(N)=O)C(=O)N[C@H](C(=O)NCC(=O)N[C@@H](C)C(=O)N[C@@H](CC(N)=O)C(=O)N[C@H](C(=O)N1CCC[C@H]1C(N)=O)[C@@H](C)O)C(C)C)[C@@H](C)O)[C@@H](C)O [FITC-AC413(6–25) Y25P] ({FITC}-ANFLVRLQTYPRTNVGANTP-NH2; C-terminus assumed)	failed to restore the decreased binding affinity
101 ± 4	markedly decreased the binding affinity	118 ± 13	72 ± 1	4.5	72 ± 6	75 ± 12	–	failed to recover the binding affinity	6.8	C[C@@H](O)[C@H](NC(=O)[C@H](CC(N)=O)NC(=O)[C@@H](NC(=O)[C@H](CCCNC(=N)N)NC(=O)[C@@H]1CCCN1C(=O)[C@H](Cc1ccc(O)cc1)NC(=S)Nc1ccc2c(c1)C(=O)OC21c2ccc(O)cc2Oc2cc(O)ccc21)[C@@H](C)O)C(=O)NCC(=O)N[C@@H](CO)C(=O)NCC(=O)N[C@H](C(=O)N1CCC[C@H]1C(N)=O)[C@@H](C)O [FITC-sCT(22–32)] ({FITC}-YPRTNTGSGTP-NH2; C-terminus assumed)	fully restored the decreased binding affinity
